Counter-ions that a name gives are not always drawn. Like-named read-outs stand apart in the source and are kept apart here.

Data set [1] concerns SUDHL5. Kind of data set: Induction of cytotoxicity (Assay 6), SUDHL5.
The subject of data set [2] is SUDHL5. The data set is described as follows: Induction of caspase-3/7 activity (Assay 4), SUDHL5. It counts as cell-based. As to conditions: SUDHL5 cells. As for the experimental part: (§1) Induction of Caspase-3/7 Activity Upon Treatment of Cells with Selected Compounds
The BH3-domain of MCL-1 sequesters pro-apoptotic proteins, thereby inhibiting apoptosis. In contrast, MCL-1 inhibitors are expected to antagonize this effect leading to an increase in apoptosis, which can be determined by measuring the activity of caspase-3/7.
(§2) The activity of caspase-3/7 was determined in DLBCL (Diffuse large B-cell lymphoma) cell lines (SUDHL5 and SUDHL10) upon treatment with different compounds, using the Caspase-Glo®3/7 reagent from Promega (G8092).
(§3) Rim wells were excluded. The cells were incubated for 3 hours in a humidified incubator at 37° C.
(§4) For the evaluation of the results, the background measured with “medium-only” was subtracted from all other values.

For data set [3], the system named is AMO-1. Kind of data set: Antiproliferation assay 7, AMO-1. It counts as cell-based. As to conditions: AMO-1 cells, CellTiter-Glo, read-out: Antiproli AMO-1 IC50 median. The method, then:
(§5) Assessment of the Anti-Proliferative Effect of Compounds in Different Cell Lines
(§6) The impact of compounds on the proliferation of different cell lines was assessed using the CellTiter-Glo® Luminescent Cell Viability reagent from Promega (G7573).
(§7) In parallel, cells were plated in a reference (day 0) plate for time zero determination.
(§8) Rim wells were excluded. The cells were incubated for 72 hours in a humidified incubator at 37° C. The day 0 plate was measured by adding 30 μL/well of CTG solution (CellTiter-Glo® Luminescent Cell Viability reagent, Promega G7573) to time zero wells in the reference plate followed by a 10 minutes incubation and luminescence reading at 0.1 ms. using the PHERAstar FS microplate reader (BMG Labtech).
(§9) After 72 hours incubation, the treated plates were measured in the same way as the day 0 plate mentioned above.

For data set [4], the system named is HMC-1-8. Kind of data set: Antiproliferation assay 7, HMC-1-8. It counts as cell-based. As to conditions: HMC-1-8 cells, CellTiter-Glo, read-out: Antiproli HMC-1-8 IC50 median. The method, then: as §5, §6, §7, §8, §9
(In general: In ATP-based viability assays light output follows the ATP content of the culture.)

For data set [5], the system named is SUDHL5. Kind of data set: Antiproliferation assay 7, SUDHL5. It counts as cell-based. The conditions noted are these: SUDHL5 cells, CellTiter-Glo, read-out: Antiproli SUDHL5 IC50 (median). As for the experimental part: as §5, §6, §7, §8, §9
Data set [6] deals with SUDHL10. Kind of data set: Induction of cytotoxicity (Assay 6), SUDHL10.
Data set [7] concerns SUDHL10. The data set is described as follows: Induction of caspase-3/7 activity (Assay 4), SUDHL10. It counts as cell-based. As to conditions: SUDHL10 cells. As for the experimental part:
as §1
In contrast, MCL-1 inhibitors are expected to antagonize this effect leading to an increase in apoptosis, which can be determined by measuring the activity of caspase-3/7.
as §2, §3, §4

For data set [8], the system named is MV-4-11. Kind of data set: Antiproliferation assay 7, MV-4-11. As to conditions: Homo sapiens, MV4-11, 72 h, MV-4-11 cells, CellTiter-Glo, read-out: Antiproli MV-4-11 IC50 median. It is filed as cell-based. As for the experimental part:
as §5, §6, §7, §8, §9

[9] abbreviates: read-out: Cytotox SUDHL5 IC50 (median), SUDHL5 cells, 5 hours, CellTiter-Glo.
Setting [10] is: 3 hours, Caspase-Glo 3/7, read-out: Caspase SUDHL5 EC50 (median).
Where [11] appears, read: read-out: Cytotox SUDHL10 IC50 (median), SUDHL10 cells, 5 hours, CellTiter-Glo.
Where [12] appears, read: 3 hours, Caspase-Glo 3/7, read-out: Caspase SUDHL10 EC50 (median).
The mark [13] stands for this setting: Homo sapiens, SU-DHL-5, 5 h, read-out: Cytotox SUDHL5 IC50 (median), SUDHL5 cells, 5 hours, CellTiter-Glo.
The mark [14] stands for this setting: Homo sapiens, SU-DHL-5, 3 h, Caspase-Glo 3/7, read-out: Caspase SUDHL5 EC50 (median).
Where [15] appears, read: Homo sapiens, SU-DHL10, 5 h, read-out: Cytotox SUDHL10 IC50 (median), SUDHL10 cells, 5 hours, CellTiter-Glo.
[16] abbreviates: Homo sapiens, SU-DHL10, 3 h, Caspase-Glo 3/7, read-out: Caspase SUDHL10 EC50 (median).

As for `CCc1c2c(nn1C)CCCCCCn1c(C(=O)O)c(CCCOc3cccc4ccccc34)c3ccc(Cl)c-2c31` (single isomer, unassigned; enantiomer 1) [Example 52, (+)-4-chloro-3-ethyl-2-methyl-7-{3-[(naphthalen-1-yl)oxy]propyl}-10,11,12,13,14,15-hexahydro-2H-pyrazolo[4′,3′:4,5]azacycloundecino[3,2,1-hi]indole-8-carboxylic acid-N-ethylethanamine Salt—Enantiomer 1], the IC50 worked out at 320 nM in data set [1] (setting [9]), 1440 nM in data set [3] (72 hours) and 5250 nM in data set [4] (72 hours). Also, the EC50 in data set [2] (setting [10]) is 370 nM.

Regarding `Cc1c2c(nn1C)COCC(F)(F)CCn1c(C(=O)O)c(CCCOc3cccc4ccccc34)c3ccc(Cl)c-2c31` (single isomer, unassigned; enantiomer 1) [Example 56, 4-chloro-12,12-difluoro-2,3-dimethyl-7-{3-[(naphthalen-1-yl)oxy]propyl}-2,10,11,12,13,15-hexahydropyrazolo[4′,3′:9,10][1,6]oxazacycloundecino[8,7,6-hi]indole-8-carboxylic acid-N-ethylethanamine Salt—Enantiomer 1], the IC50 in data set [5] (72 hours) came to 1100 nM; in data set [1] (setting [9]), 590 nM; in data set [3] (72 hours) it was 1770 nM; in data set [6] (setting [11]), 1600 nM; in data set [4] (72 h), 8270 nM. Further, the values for the EC50 in data set [2] (setting [10]) and in data set [7] (setting [12]) were 690 nM and 1800 nM, respectively.

`Cc1c2c(nn1C)CN(CC(F)(F)F)CCCCn1c(C(=O)O)c(CCCOc3cccc4cc(F)ccc34)c3ccc(Cl)c-2c31` (single isomer, unassigned; enantiomer 1) [Example 59, 4-chloro-7-{3-[(6-fluoronaphthalen-1-yl)oxy]propyl}-2,3-dimethyl-14-(2,2,2-trifluoroethyl)-10,11,12,13,14,15-hexahydro-2H-pyrazolo[3′,4′:8,9][1,6]diazacycloundecino[10,11,1-hi]indole-8-carboxylic Acid—Enantiomer 1]: the IC50 in data set [5] (72 hours) is 340 nM; in data set [1] (setting [9]), 310 nM; in data set [3] (72 hours) it was 216 nM; in data set [6] (setting [11]), 550 nM; in data set [4] (72 hours), 1120 nM. Further, the EC50 in data set [2] (setting [10]) came to 240 nM; in data set [7] (setting [12]) it was 490 nM.

In the case of `Cc1c2c(nn1C)COCC1CCC1Cn1c(C(=O)O)c(CCCOc3cccc4ccccc34)c3ccc(Cl)c-2c31` (single isomer, unassigned; stereoisomer 1) [Example 63], the IC50 in data set [5] (Homo sapiens, SU-DHL-5, 72 h) worked out at 2600 nM; in data set [1] (setting [13]) it was 1500 nM; in data set [3] (72 hours), 2560 nM; in data set [6] (setting [11]), 3300 nM; in data set [4] (72 h), 7850 nM. The EC50 in data set [2] (setting [14]) was 1400 nM; in data set [7] (setting [12]), 3100 nM.

For the molecule `Cc1c2c(nn1C)OCCCCCn1c(C(=O)O)c(CCCOc3cccc4cc(F)ccc34)c3ccc(Cl)c-2c31` (single isomer, unassigned; enantiomer 2) [Example 85, 4-chloro-7-{3-[(6-fluoronaphthalen-1-yl)oxy]propyl}-2,3-dimethyl-11,12,13,14-tetrahydro-2H,10H-pyrazolo[3′,4′:2,3][1,6]oxazacycloundecino[4,5,6-hi]indole-8-carboxylic Acid—Enantiomer 2], the IC50 in data set [5] (72 hours) is 13000 nM; in data set [1] (setting [9]), 17000 nM; in data set [3] (72 hours), 6100 nM; in data set [6] (setting [11]) it was 25000 nM; in data set [4] (72 hours), greater than 30000 nM. Also, the EC50 was found to be 9700 nM in data set [2] (setting [10]) and 25000 nM in data set [7] (setting [12]).

Turning to `CCc1c2c(nn1C)CCCCCCn1c(C(=O)O)c(CCCOc3cccc4cc(F)ccc34)c3ccc(Cl)c-2c31` (racemic) [Example 54, (rac)-4-chloro-3-ethyl-7-{3-[(6-fluoronaphthalen-1-yl)oxy]propyl}-2-methyl-10,11,12,13,14,15-hexahydro-2H-pyrazolo[4′,3′:4,5]azacycloundecino[3,2,1-hi]indole-8-carboxylic Acid], the IC50 in data set [5] (Homo sapiens, SU-DHL-5, 72 h) stood at 430 nM; in data set [1] (setting [13]), 670 nM; in data set [3] (Homo sapiens, AMO1, 72 h), 1350 nM; in data set [6] (setting [15]), 740 nM; in data set [4] (72 h) it was 2210 nM. Moreover, the EC50 in data set [2] (setting [14]) turned out to be 600 nM; in data set [7] (setting [16]) it was 520 nM.

`Cc1c2c(nn1C)OCCCCCn1c(C(=O)O)c(CCCOc3cccc4cc(F)ccc34)c3ccc(Cl)c-2c31` (racemic) [Example 83, (rac)-4-chloro-7-{3-[(6-fluoronaphthalen-1-yl)oxy]propyl}-2,3-dimethyl-11,12,13,14-tetrahydro-2H,10H-pyrazolo[3′,4′:2,3][1,6]oxazacycloundecino[4,5,6-hi]indole-8-carboxylic Acid]: the IC50 in data set [5] (72 hours) came out at 380 nM; in data set [1] (setting [9]), 660 nM; in data set [3] (72 hours), 730 nM; in data set [6] (setting [11]), 1100 nM; in data set [4] (72 hours) it was 7900 nM. Moreover, the results for the EC50 in data set [2] (setting [10]) and in data set [7] (setting [12]) were 610 nM and 980 nM, respectively.

For `Cc1c2c(nn1C)CN(CC(F)(F)F)CCCCn1c(C(=O)O)c(CCCOc3cccc4cc(F)ccc34)c3ccc(Cl)c-2c31` (racemic) [Example 58, (rac)-4-chloro-7-{3-[(6-fluoronaphthalen-1-yl)oxy]propyl}-2,3-dimethyl-14-(2,2,2-trifluoroethyl)-10,11,12,13,14,15-hexahydro-2H-pyrazolo[3′,4′:8,9][1,6]diazacycloundecino[10,11,1-hi]indole-8-carboxylic Acid], the IC50 worked out at 250 nM in data set [5] (Homo sapiens, SU-DHL-5, 72 h); 340 nM in data set [1] (setting [13]); 683 nM in data set [3] (Homo sapiens, AMO1, 72 h); 530 nM in data set [6] (setting [15]); 1720 nM in data set [4] (72 h). The EC50 was 330 nM in data set [2] (setting [14]) and 440 nM in data set [7] (setting [16]).

In the case of `CCc1c2c(nn1C)CN(CC(F)(F)F)CCCCn1c(C(=O)O)c(CCCOc3cccc4cc(F)ccc34)c3ccc(Cl)c-2c31` (racemic) [Example 61, (rac) 4-chloro-3-ethyl-7-{3-[(6-fluoronaphthalen-1-yl)oxy]propyl}-2-methyl-14-(2,2,2-trifluoroethyl)-10,11,12,13,14,15-hexahydro-2H-pyrazolo[3′,4′:8,9][1,6]diazacycloundecino[10,11,1-hi]indole-8-carboxylic Acid], the IC50 in data set [1] (setting [13]) came to 540 nM; in data set [3] (Homo sapiens, AMO1, 72 h), 1870 nM; in data set [4] (72 h), 7150 nM. The EC50 in data set [2] (setting [14]) came to 330 nM.

In the case of `CCc1nn(C)c2c1-c1c(Cl)ccc3c(CCCOc4cccc5cc(F)ccc45)c(C(=O)O)n(c13)CCCCN(C)C2` (racemic) [Example 39, (rac)-4-chloro-3-ethyl-7-{3-[(6-fluoronaphthalen-1-yl)oxy]propyl}-1,14-dimethyl-10,11,12,13,14,15-hexahydro-1H-pyrazolo[3′,4′:8,9][1,6]diazacycloundecino[10,11,1-hi]indole-8-carboxylic Acid], the IC50 in data set [5] (Homo sapiens, SU-DHL-5, 72 h) stood at 200 nM; in data set [8], 442 nM; in data set [1] (setting [13]), 230 nM; in data set [3] (Homo sapiens, AMO1, 72 h), 359 nM; in data set [6] (setting [15]), 410 nM. The EC50 turned out to be 200 nM in data set [2] (setting [14]) and 390 nM in data set [7] (setting [16]).

`CCc1c2c(nn1C)CCCCCCn1c(C(=O)O)c(CCCOc3cccc4ccccc34)c3ccc(Cl)c-2c31` (single isomer, unassigned; enantiomer 2) [Example 53, (−) 4-chloro-3-ethyl-2-methyl-7-{3-[(naphthalen-1-yl)oxy]propyl}-10,11,12,13,14,15-hexahydro-2H-pyrazolo[4′,3′:4,5]azacycloundecino[3,2,1-hi]indole-8-carboxylic acid-N-ethylethanamine Salt—Enantiomer 2]: the IC50 was 2500 nM in data set [1] (setting [9]), 11200 nM in data set [3] (72 hours) and 16800 nM in data set [4] (72 hours). For the same molecule, the EC50 in data set [2] (setting [10]) stood at 3500 nM.

What is called IC50 is the concentration that inhibits the measured activity by half. Broadly, the EC50 is the concentration giving half of the maximal effect.

Values taken from patent US11447504B2, “Macrocyclic chlorine substituted indole derivatives” (Bayer Aktiengesellschaft, priority 2017, dated 2022).
